In publication PMC4861903, “Synthesis of a highly water-soluble acacetin prodrug for treating experimental atrial fibrillation in beagle dogs” (Scientific Reports, 2016):

Key:
[1] = target: T1, hKv4.3 current (Ito, KCND3) (Homo sapiens, UniProt Q9UK17); assay: Whole-cell patch clamp of hKv4.3 current in HEK 293 cells; type: cell-based; details: 30 μM, at +50 mV, n = 5
T1 construct: expressed in transfected cells
T1 sequence (Q9UK17 1-655): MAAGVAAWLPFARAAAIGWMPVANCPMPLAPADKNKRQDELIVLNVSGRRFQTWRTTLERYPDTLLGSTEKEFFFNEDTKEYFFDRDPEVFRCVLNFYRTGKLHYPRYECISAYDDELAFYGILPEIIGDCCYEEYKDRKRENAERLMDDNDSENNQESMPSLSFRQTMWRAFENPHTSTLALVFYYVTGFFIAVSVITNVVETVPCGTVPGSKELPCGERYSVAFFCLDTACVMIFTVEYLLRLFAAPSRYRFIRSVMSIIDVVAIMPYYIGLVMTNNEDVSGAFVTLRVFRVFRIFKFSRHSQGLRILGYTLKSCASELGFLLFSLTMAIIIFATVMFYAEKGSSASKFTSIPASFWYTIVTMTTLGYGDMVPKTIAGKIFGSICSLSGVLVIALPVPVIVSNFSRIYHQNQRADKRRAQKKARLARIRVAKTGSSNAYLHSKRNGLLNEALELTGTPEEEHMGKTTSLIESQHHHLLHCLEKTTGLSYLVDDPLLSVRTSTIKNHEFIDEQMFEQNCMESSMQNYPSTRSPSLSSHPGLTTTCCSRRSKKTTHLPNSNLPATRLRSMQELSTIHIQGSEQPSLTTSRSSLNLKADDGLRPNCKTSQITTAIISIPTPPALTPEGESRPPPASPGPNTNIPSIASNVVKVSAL
Protocol: Whole-cell currents of hKv1.5 and hKv4.3 were recorded in established HEK 293 cell lines stably expressing hKv1.5 (KCN5A) and hKv4.3 (KCND3) and IKACh was determined in isolated rat atrial myocytes as described previously[12][31][32] and in Supplemental Materials. […]
Effects of acacetin prodrug on cardiac potassium currents
Whole-cell currents of hKv1.5 and hKv4.3 were recorded in established HEK 293 cell lines stably expressing hKv1.5 (KCN5A) and hKv4.3 (KCND3).1, 2 The cells were cultured in Dulbecco’s modified eagle’s medium (DMEM, Invitrogen, Hong Kong) supplemented with 10% fetal bovine serum and 400 µg/mL G418. Cells on a coverslip were transferred to an open cell chamber (0.5 ml) mounted on the stage of an inverted microscope and superfused with Tyrode’s solution at 2 mL/min. The whole cell patch-clamp technique was used as described previously.1, 2 The whole-cell membrane currents were measured using an EPC-10 amplifier and Pulse software (Heka Elektronik, Lambrecht, Germany). Borosilicate glass electrodes (1.2-mm OD) were pulled with a Brown/Flaming puller (model P-97, Sutter Instrument, Nato, CA) and had resistances of 1.5~2.5 MΩ when filled with the pipette solution. A 3-M KCl agar bridge was used as the reference electrode. The tip potential was zeroed before the patch pipette contacted the cell. […]

[2] = Ex vivo bioconversion of acacetin prodrug in rat liver microsome; type: in vitro ADME; details: 37 °C, n = 3
Protocol: The ex vivo bioconversion of acacetin prodrug was determined in rat plasma or rat hepatic microsome that contains high content alkaline phosphatase, as described previously[30] and in Supplemental Materials. The in vivo bioconversion of acacetin prodrug was determined in beagle dogs as described in Supplemental Materials. […]
Bioconversion of acacetin prodrug was also determined in rat hepatic microsomes containing high content alkaline phosphatase,5 as described previously.6 Sprague-Dawley rat liver microsomes were purchased from Invitrogen (Hong Kong, China). The reaction mixture was prepared in 50 mM Tris-HCl buffer (pH = 7.4) with 1 mM NADPH (nicotinamide adenine dinucleotide phosphate) and 0.5 mg/mL (total protein) microsomes. Prodrug solutions were added to the microsomes reaction mixture with a final concentration of 5 µg/mL. The reaction solution was incubated in a water bath at 37℃ and shaken at 60 rpm for 1 h. The samples were collected at 0, 1, 2, 15, 30 and 60 min. The reaction was terminated by adding 200 μL cold methanol containing internal standard (pentamethylquercetin, 50 ng/ml). After centrifugation at 12000 g for 30 min, the supernatant was immediately analyzed by HPLC. […]

COc1ccc(-c2cc(=O)c3c(O)cc(OP(=O)([O-])[O-])cc3o2)cc1.[Na+].[Na+] [acacetin prodrug, phosphate sodium salt of acacetin]
inhibition of hKv4.3 current [1]: no significant inhibition
prodrug converted into acacetin ([2]; 1 min incubation): 60%
prodrug converted into acacetin ([2]; 30 min incubation): 100%
